# Like-named read-outs stand apart in the source and are kept apart here.
# Molecular target: T1, MC4R (Homo sapiens, UniProt P32245)
# T1 construct: expressed in transfected cells; host or cells: HEK (Human Embryonic Kidney) permanent expression cell line HEK MC4R-Luc, co-expressing CRE-luciferase
# Experiment: MCR agonistic activity (luciferase assay / cAMP accumulation assay) on MC4R
# Assay type: cell-based
# Conditions: HEK cell lines expressing MC4R, not said which
# Method in brief: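 HEK cells stably expressing MC4R with a CRE-luciferase reporter treated 5 hours at 37 °C with serially diluted agonist (≤1% DMSO); luminescence expressed relative to 10 nM NDP-MSH, EC50 at half-maximal signal. Alternatively, cAMP measured after 30 minutes with compound plus 500 μM IBMX by [3H]-cAMP competition binding.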
# [1] = method A (CRE-luciferase) or B (cAMP accumulation), read-out: EC50 value, agonistic activity to MC4R (range per group of Examples)
# [2] = specific activities of representative compounds, method A or B, read-out: EC50
# T1 sequence (P32245 whole entry, species assumed): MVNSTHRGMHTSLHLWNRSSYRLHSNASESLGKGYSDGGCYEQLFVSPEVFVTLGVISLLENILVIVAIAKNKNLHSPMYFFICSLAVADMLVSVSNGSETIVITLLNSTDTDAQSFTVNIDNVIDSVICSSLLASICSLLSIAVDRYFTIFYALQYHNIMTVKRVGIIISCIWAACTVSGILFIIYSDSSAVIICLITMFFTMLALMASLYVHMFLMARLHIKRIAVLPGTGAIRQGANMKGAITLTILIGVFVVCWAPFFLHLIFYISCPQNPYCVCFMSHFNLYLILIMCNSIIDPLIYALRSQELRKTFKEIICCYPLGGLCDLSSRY
EC50 [1] [nM],EC50 [2] [nM],Structure (SMILES)
0.1 to 10,–,"CCN1CCN(C(=O)[C@@H]2C[C@H](N(C(C)=O)C3CCC(C)(C)CC3)CN2C(=O)[C@@H]2CN(C(C)(C)C)C[C@H]2c2ccc(Cl)cc2)CC1 [Example 8, N-{(3S,5S)-1-{[(3S,4R)-1-tert-butyl-4-(4-chlorophenyl)pyrrolidin-3-yl]carbonyl}-5-[(4-ethylpiperazin-1-yl)carbonyl]pyrrolidin-3-yl}-N-(4,4-dimethylcyclohexyl)acetamide]"
0.1 to 10,–,"CN1CCN(C(=O)[C@@H]2C[C@H](N(C(=O)C(C)(C)CO)C3CCC(C)(C)CC3)CN2C(=O)[C@@H]2CN(C3CC3)C[C@H]2c2ccc(Cl)cc2)CC1 [Example 58, N-{(3S,5S)-1-{[(3S,4R)-4-(4-chlorophenyl)-1-cyclopropylpyrrolidin-3-yl]carbonyl}-5-[(4-methylpiperazin-1-yl)carbonyl]pyrrolidin-3-yl}-N-(4,4-dimethylcyclohexyl)-3-hydroxy-2,2-dimethylpropanamide]"
0.1 to 10,4,"CN1CCN(C(=O)[C@H]2C[C@H](N(C(=O)[C@@H]3CCCO3)C3CCC(C)(C)CC3)CN2C(=O)[C@@H]2CN(C(C)(C)C)C[C@H]2c2ccc(F)cc2F)CC1 [Example 32, (2S)-N-{(3S,5R)-1-{[(3S,4R)-1-tert-butyl-4-(2,4-difluorophenyl)pyrrolidin-3-yl]carbonyl}-5-[(4-methylpiperazin-1-yl)carbonyl]pyrrolidin-3-yl}-N-(4,4-dimethylcyclohexyl)tetrahydrofuran-2-carboxamide]"
1000 to 10000,–,"CN1CCN(C(=O)[C@@H]2C[C@H](N(C(=O)C(C)(C)C)C3CCC(C)(C)CC3)CN2C(=O)[C@@H]2CN(c3ncccn3)C[C@H]2c2ccc(Cl)cc2)CC1 [Example 67, N-{(3S,5S)-1-{[(3S,4R)-4-(4-chlorophenyl)-1-pyrimidine-2-ylpyrrolidin-3-yl]carbonyl}-5-[(4-methylpiperazin-1-yl)carbonyl]pyrrolidin-3-yl}-N-(4,4-dimethylcyclohexyl)-2,2-dimethylpropanamide]"
0.1 to 10,–,"CN1CCN(C(=O)[C@H]2C[C@H](N(C(=O)C(C)(C)CO)[C@H]3CC[C@@H](C)CC3)CN2C(=O)[C@@H]2CN(C(C)(C)C)C[C@H]2c2ccc(Cl)cc2)CC1 [Example 36, N-{(3S,5R)-1-{[(3S,4R)-1-tert-butyl-4-(4-chlorophenyl)pyrrolidin-3-yl]carbonyl}-5-[(4-methylpiperazin-1-yl)carbonyl]pyrrolidin-3-yl}-3-hydroxy-2,2-dimethyl-N-(cis-4-methylcyclohexyl)propanamide]"
0.1 to 10,–,"CN1CCN(C(=O)[C@@H]2C[C@H](N(C(=O)C(C)(C)C)[C@H]3CC[C@@H](C)CC3)CN2C(=O)[C@@H]2CN(C(C)(C)C)C[C@H]2c2ccc(F)cc2F)CC1 [Example 18, N-{(3S,5S)-1-{[(3S,4R)-1-tert-butyl-4-(2,4-difluorophenyl)pyrrolidin-3-yl]carbonyl}-5-[(4-methylpiperazin-1-yl)carbonyl]pyrrolidin-3-yl}-2,2-dimethyl-N-(cis-4-methylcyclohexyl)propanamide]"
0.1 to 10,–,"CN1CCN(C(=O)[C@@H]2C[C@H](N(C(=O)C(C)(C)CO)[C@H]3CC[C@@H](C)CC3)CN2C(=O)[C@@H]2CN(C3CC3)C[C@H]2c2ccc(F)cc2F)CC1 [Example 60, N-{(3S,5S)-1-{[(3S,4R)-1-cyclopropyl-4-(2,4-difluorophenyl)pyrrolidin-3-yl]carbonyl}-5-[(4-methylpiperazin-1-yl)carbonyl]pyrrolidin-3-yl}-N-(cis-4-methylcyclohexyl)-3-hydroxy-2,2-dimethylpropanamide]"
0.1 to 10,–,CC(C)(C)C(=O)N(c1ccc(F)cc1F)[C@H]1C[C@@H](C(=O)N2CCNCC2)N(C(=O)[C@@H]2CN(C(C)(C)C)C[C@H]2c2ccc(Cl)cc2)C1 [Example 81]
10 to 100,–,"CN1CCN(C(=O)[C@@H]2C[C@H](N(C(=O)c3ccco3)c3ccc(F)cc3F)CN2C(=O)[C@@H]2CN(C(C)(C)C)C[C@H]2c2ccc(Cl)cc2)CC1 [Example 83, N-{(3S,5S)-1-{[(3S,4R)-1-tert-butyl-4-(4-chlorophenyl)pyrrolidin-3-yl]carbonyl}-5-[(4-methylpiperazin-1-yl)carbonyl]pyrrolidin-3-yl}-N-(2,4-difluorophenyl)-2-furamide]"
0.1 to 10,–,"CCN1CCN(C(=O)[C@@H]2C[C@H](N(C(=O)[C@@H]3CCCO3)C3CCC(C)(C)CC3)CN2C(=O)[C@@H]2CN(C(C)(C)C)C[C@H]2c2ccc(Cl)cc2)CC1 [Example 12, (2S)-N-{(3S,5S)-1-{[(3S,4R)-1-tert-butyl-4-(4-chlorophenyl)pyrrolidin-3-yl]carbonyl}-5-[(4-ethylpiperazin-1-yl)carbonyl]pyrrolidin-3-yl}-N-(4,4-dimethylcyclohexyl)tetrahydrofuran-2-carboxamide]"
0.1 to 10,–,"CN1CCN(C(=O)[C@@H]2C[C@H](N(C(=O)[C@@H]3CCCO3)C3CCC(C)(C)CC3)CN2C(=O)[C@@H]2CN(c3ccccn3)C[C@H]2c2ccc(Cl)cc2)CC1 [Example 65, (2S)-N-{(3S,5S)-1-{[(3S,4R)-4-(4-chlorophenyl)-1-pyridine-2-ylpyrrolidin-3-yl]carbonyl}-5-[(4-methylpiperazin-1-yl)carbonyl]pyrrolidin-3-yl}-N-(4,4-dimethylcyclohexyl)tetrahydrofuran-2-carboxamide]"

# The next lines start with the molecule.
Structure (SMILES),EC50 [1] [nM],EC50 [2] [nM]
CN1CCN(C(=O)[C@@H]2C[C@H](N(C(=O)[C@@H]3CCCO3)C3CCC(C)(C)CC3)CN2C(=O)[C@@H]2CN(c3cccnn3)C[C@H]2c2ccc(F)cc2F)CC1 [Example 45],0.1 to 10,8
"CN1CCN(C(=O)[C@@H]2C[C@H](N(C(=O)[C@@H]3CCCO3)[C@H]3CC[C@@H](C)CC3)CN2C(=O)[C@@H]2CN(C(C)(C)C)C[C@@H]2c2ccc(Cl)cc2)CC1 [Example 75, (2S)-N-{(3S,5S)-1-{[(3S,4S)-1-tert-butyl-4-(4-chlorophenyl)pyrrolidin-3-yl]carbonyl}-5-[(4-methylpiperazin-1-yl)carbonyl]pyrrolidin-3-yl}-N-(cis-4-methylcyclohexyl)tetrahydrofuran-2-carboxamide]",1000 to 10000,–
"CN1CCN(C(=O)[C@@H]2C[C@H](N(C(=O)[C@@H]3CCCO3)C3CCC(C)(C)CC3)CN2C(=O)[C@@H]2CN(C(C)(C)C)C[C@H]2c2ccc(F)cc2F)CC1 [Example 14, (2S)-N-{(3S,5S)-1-{[(3S,4R)-1-tert-butyl-4-(2,4-difluorophenyl)pyrrolidin-3-yl]carbonyl}-5-[(4-methylpiperazin-1-yl)carbonyl]pyrrolidin-3-yl}-N-(4,4-dimethylcyclohexyl)tetrahydrofuran-2-carboxamide]",0.1 to 10,–
"CN1CCN(C(=O)[C@H]2C[C@H](N(C(=O)[C@@H]3CCCO3)[C@H]3CC[C@@H](C)CC3)CN2C(=O)[C@@H]2CN(C(C)(C)C)C[C@H]2c2ccc(Cl)cc2)CC1 (relative stereo) [Example 35, (2S)-N-{(3S,5R)-1-{[(3S,4R)-1-tert-butyl-4-(4-chlorophenyl)pyrrolidin-3-yl]carbonyl}-5-[(4-methylpiperazin-1-yl)carbonyl]pyrrolidin-3-yl}-N-(cis-4-methylcyclohexyl)tetrahydrofuran-2-carboxamide]",0.1 to 10,–
"CC(=O)N([C@H]1C[C@H](C(=O)N2CCN(C)CC2)N(C(=O)[C@@H]2CN(C(C)(C)C)C[C@H]2c2ccc(Cl)cc2)C1)[C@H]1CC[C@@H](C)CC1 [Example 37, N-{(3S,5R)-1-{[(3S,4R)-1-tert-butyl-4-(4-chlorophenyl)pyrrolidin-3-yl]carbonyl}-5-[(4-methylpiperazin-1-yl)carbonyl]pyrrolidin-3-yl}-N-(cis-4-methylcyclohexyl)acetamide]",0.1 to 10,–
"CC(=O)N([C@H]1C[C@H](C(=O)N2CCN(C)CC2)N(C(=O)[C@@H]2CN(C(C)(C)C)C[C@H]2c2ccc(F)cc2F)C1)[C@H]1CC[C@@H](C)CC1 [Example 38, N-{(3S,5R)-1-{[(3S,4R)-1-tert-butyl-4-(2,4-difluorophenyl)pyrrolidin-3-yl]carbonyl}-5-[(4-methylpiperazin-1-yl)carbonyl]pyrrolidin-3-yl}-N-(cis-4-methylcyclohexyl)acetamide]",0.1 to 10,–
"CN1CCN(C(=O)[C@@H]2C[C@H](N(C(=O)C(C)(C)C)C3CCC(F)(F)CC3)CN2C(=O)[C@@H]2CN(C(C)(C)C)C[C@H]2c2ccc(Cl)cc2)CC1 [Example 26, N-{(3S,5S)-1-{[(3S,4R)-1-tert-butyl-4-(4-chlorophenyl)pyrrolidine-3-yl]carbonyl}-5-[(4-methylpiperazin-1-yl)carbonyl]pyrrolidin-3-yl}-N-(4,4-difluorocyclohexyl)-2,2-dimethylpropanamide]",0.1 to 10,6
"CN1CCN(C(=O)[C@H]2C[C@H](N(C(=O)[C@@H]3CCCO3)C3CCC(C)(C)CC3)CN2C(=O)[C@@H]2CN(C(C)(C)C)C[C@H]2c2ccc(Cl)cc2)CC1 [Example 34, (2S)-N-{(3S,5R)-1-{[(3S,4R)-1-tert-butyl-4-(4-chlorophenyl)pyrrolidin-3-yl]carbonyl}-5-[(4-methylpiperazin-1-yl)carbonyl]pyrrolidin-3-yl}-N-(4,4-dimethylcyclohexyl)tetrahydrofuran-2-carboxamide]",0.1 to 10,–
"CN1CCN(C(=O)[C@@H]2C[C@H](N(C(=O)[C@@H]3CCCO3)[C@H]3CC[C@@H](C)CC3)CN2C(=O)[C@@H]2CN(C(C)(C)C)C[C@H]2c2ccc(Cl)cc2)CC1 [Example 16, (2S)-N-{(3S,5S)-1-{[(3S,4R)-1-tert-butyl-4-(4-chlorophenyl)pyrrolidin-3-yl]carbonyl}-5-[(4-methylpiperazin-1-yl)carbonyl]pyrrolidin-3-yl}-N-(cis-4-methylcyclohexyl)tetrahydrofuran-2-carboxamide]",0.1 to 10,0.4

# — patent US8183243B2, “Melanocortin receptor agonists” (LG Life Sciences Ltd., priority 2008, dated 2012)
